Like-named read-outs stand apart in the source and are kept apart here.
Assays:
[1] = test system: H460 cell lines; test: In vitro cytotoxicity (AlamarBlue) with or without ABT-888, H460; type: cell-based; conditions: Homo sapiens
Protocol: (§1) The effect of the PARP inhibitor, ABT-888, on TH-302 activity was investigated in three human cancer cell lines: human non small cell lung H460, human melanoma A375, and human colorectal carcinoma HCT116.
(§2) Cells were pretreated with ABT-888 for 1 h under normoxia, and then co-incubated with TH-302 for additional 2 h under either normoxia or hypoxia. After 3 days of incubation in the presence of ABT-888, cell viability was determined using AlamarBlue. For the temozolomide (TMZ) group, cells were co-treated with temozolomide and ABT-888 for 3 days after 1 h pretreatment with ABT-888.

[2] = test system: HCT116 cell lines; test: In vitro cytotoxicity (AlamarBlue) with or without ABT-888, HCT116; type: cell-based; conditions: Homo sapiens
Protocol: as §1, §2

[3] = test system: A375 cell lines; test: In vitro cytotoxicity (AlamarBlue) with or without ABT-888, A375; type: cell-based; conditions: Homo sapiens
Protocol: as §1, §2

[4] = test system: AA8; test: Cytotoxicity in AA8 cells (Table 7); type: cell-based, chinese hamster; conditions: Cricetulus griseus
Source text: (§3) In contrast, the activity of the monoalkylating agent temozolomide was enhanced by ABT-888 in these cancer cell lines (see, Tables 1, 3, and 5).

[5] = test system: EM9 cells; test: Cytotoxicity in EM9 cells deficient in base excision repair gene XRCC1 (Table 7); type: cell-based; conditions: for Fold difference in sensitivity (anoxia) / Fold difference in sensitivity (normoxia): AA8 versus EM9
Source text: as §3

[6] = test system: AA8 cells; test: Cytotoxicity in wild type AA8 cells, 2 h treatment, alamar blue (Table 8); type: cell-based, chinese hamster; conditions: for IC50: Cricetulus griseus
Protocol: (§4) The role of homology-directed DNA repair (HDR) on TH-302 was investigated in wild type and HDR deficient chinese hamster ovary (CHO) cells. […] TH-302 activity can be modulated by pharmacological modulators of both reductases and DNA damage and repair pathways. TH-302 activity can be inhibited by the flavin reductase inhibitor DPI. TH-302 activity was not affected by the PARP inhibitor ABT-888.
(§5) The wild type AA8 cells and the HDR impaired irs1SF and UV41 cells were treated with TH-302 for 2 h, washed, and then incubated for 3 days. At the end of the incubation, viable cells were quantified using alamar blue.

[7] = test system: irs1SF cells; test: Cytotoxicity in HDR impaired irs1SF cells, 2 h treatment, alamar blue (Table 8); type: cell-based, chinese hamster; conditions: for IC50: Cricetulus griseus
Protocol: as §4, §5

[8] = test system: UV41 cells; test: Cytotoxicity in HDR impaired UV41 cells, 2 h treatment, alamar blue (Table 8); type: cell-based, chinese hamster; conditions: for IC50: Cricetulus griseus
Protocol: as §4, §5

[9] = test system: multiple human cancer cell lines; test: Hypoxia-enhanced cytotoxicity in vitro; type: cell-based
Source text: In these examples, pharmacological tools were utilized to test the underlying mechanisms of DNA repair processes involved in the cellular response to TH-302. In vitro cytotoxicity assays were used as the primary read-out.

[10] = Modulation of TH-302 activity by the flavin reductase inhibitor DPI; type: cell-based; conditions: with DPI
Source text: as §4

[11] = CHO-AA8, read-out: IC50 (μM) Anoxia AA8
[12] = CHO-AA8, read-out: IC50 (μM) Normoxia AA8
[13] = read-out: IC50 (μM) Normoxia EM9

Cn1c(COP(=O)(NCCBr)NCCBr)cnc1[N+](=O)[O-] [TH-302]
IC50 ([1]; NCI-H460, read-out: IC50 (μM) Hypoxia): 0.2 µM | IC50 ([1]; NCI-H460, read-out: IC50 (μM) Normoxia): 47 µM | IC50 ([2]; HCT-116, read-out: IC50 (μM) Hypoxia): 0.1 µM | IC50 ([2]; HCT-116, read-out: IC50 (μM) Normoxia): 61 µM | IC50 ([3]; A-375, read-out: IC50 (μM) Hypoxia): 1.5 µM | IC50 ([3]; A-375, read-out: IC50 (μM) Normoxia): 230 µM | IC50 [4, 11]: 10 µM | IC50 [4, 12]: > 1000 µM | Fold difference in sensitivity (anoxia) [5]: 1 fold | Fold difference in sensitivity (normoxia) ([5]; normoxia): >1.3 fold | IC50 ([5]; read-out: IC50 (μM) Anoxia EM9): 14 µM | IC50 [5, 13]: 760 µM | IC50 ([6]; CHO-AA8, N2, read-out: IC50 (μM) N2): 1.1 µM | IC50 ([6]; CHO-AA8, air, read-out: IC50 (μM) Air): 340 µM | HCR ([6]; ratio air/N2): 310 | IC50 ([7]; N2, read-out: IC50 (μM) N2): 0.5 µM | IC50 ([7]; air, read-out: IC50 (μM) Air): 95 µM | HCR ([7]; ratio air/N2): 190 | IC50 ([8]; N2, read-out: IC50 (μM) N2): 0.02 µM | IC50 ([8]; air, read-out: IC50 (μM) Air): 16 µM | HCR ([8]; ratio air/N2): 800 | hypoxia-enhanced cytotoxicity [9]: about 400 fold | TH-302 activity in the presence of the flavin reductase inhibitor DPI [10]: inhibited

Cn1nnc2c(C(N)=O)ncn2c1=O [Temozolomide, temozolomide, reference compound]
IC50 ([1]; NCI-H460, H460, normoxia, 3 days co-treatment after 1 h ABT-888 pretreatment, read-out: IC50 (μM), Normoxia): 540 µM | IC50 ([2]; HCT-116, HCT116, normoxia, 3 days co-treatment after 1 h ABT-888 pretreatment, read-out: IC50 (μM), Normoxia): 890 µM | IC50 ([3]; A-375, A375, normoxia, 3 days co-treatment after 1 h ABT-888 pretreatment, read-out: IC50 (μM), Normoxia): 510 µM | IC50 ([4]; CHO-AA8, AA8, normoxia, read-out: IC50 (μM) Normoxia AA8): > 1000 µM | Fold difference in sensitivity (normoxia) ([5]; normoxia): >5.9 fold | IC50 ([5]; EM9, normoxia, read-out: IC50 (μM) Normoxia EM9): 168 µM

Nc1n[n+]([O-])c2ccccc2[n+]1[O-] [Tirapazamine, tirapazamine]
IC50 [4, 11]: 50 µM | IC50 [4, 12]: > 1000 µM | Fold difference in sensitivity (anoxia) [5]: 3 fold | IC50 ([5]; read-out: IC50 (μM) Anoxia EM9): 15 µM | IC50 [5, 13]: > 1000 µM
